In US12576040B2, “Ionizable lipids and methods of manufacture and use thereof” (priority 2020, dated 2026):

Key:
[1] = assay type: physicochemical; conditions: Table 11a
Description: In certain embodiments, the pKa of the Ionizable Lipids of the Invention included in the LNP is measured by fluorescent enhancement of an anionic lipophilic dye TNS binding to the LNP containing the ionizable lipid. Prior studies have shown that the TNS pKa needs to be near 6.5 for efficient delivery to liver upon IV administration. The pKa in the aqueous phase can be predicted by software such ACDLabs Percepta, resulting in pKas that are higher than the TNS pKa. Given the importance of the LNP pKa in determining their efficiency, we developed new methods (zeta potential, ^1H NMR, modeling) to link the intrinsic pKa of the ionizable lipid to LNP ionization properties, in order to rationally design effective systems for mRNA delivery.
In certain embodiments, the hydrophilic DMG-PEG forms the shell of the LNP. The amount of nucleic acid is represented by the NP mole ratio of the amine on the ionizable lipid to the phosphate groups on the nucleic acid backbone and is typically 3-6. In certain embodiments, the pKa of the LNP to be in the 6-7 range corresponding to the pH in the early endosome. […] The pKa of the LNP was measured using the pH-dependence of fluorescence enhancement of the anionic dye TNS. In certain embodiments, the pKa-dependent endosomal release mechanism was described as an ion-pairing event between the cationic protonated ionizable lipid and anionic endosomal phospholipids where a divergent cone-shape lipid tail of the ionizable lipid facilitates membrane rupture.

HEK 293 cells = test: Firefly Luciferase Assay for mRNA Delivery Efficiency / transfection in vitro; assay type: cell-based; parameters: key: +: successfully transfected HEK 293 cells in vitro; −: not active
From the text: FIG. 32 illustrates luciferase reported expression in vitro and in vivo.
In certain embodiments, the invention encompasses a new class of ionizable lipids (the Ionizable Lipids of the Invention) synthesized bearing two ionizable amines and two degradable ester linkers to linoleic acid tails or branched tails. DL=DiLinoleic Acid, ADDE=Azane Diyl DiEthyl, Cx/Cy=carbon spacers, DMA=DiMethylAmine, Pyr=Pyridine, PipZ=PiperaZine, PipD=PiperiDine, DIPA=DiIsopropylamine, DM=DiMethyl, BOD=BisOctylDecyl.
Summary: LNPs were formulated using total lipid concentration of 50 mM comprised of ionizable lipids/DSPC/Cholesterol/PEG-DMG (50:10:38.5:1.5 mol %). Each one of the lipids were solubilized in ethanol until a clear solution was observed. The four lipids were combined to get 50 mM total lipid concentration (25/5/19.25/0.75 mM respectively) and serial dilutions to get 27.74 mM. […] Purified mRNA was ethanol precipitated, washed and resuspended in nuclease-free water to reach a concentration of 1 mg/ml. […] 16 μl Lipid Mix and 32 μl mRNA solution were mixed on Setting 3 and ejected into 48 μl 1×DPBS pH 7.4. The formed LNPS were then diluted into an additional 96 μl 1×DPBS pH 7.4. LNPs were then dialyzed against 1×DPBS pH 7.4 for 6×1 hr. LNPs were then diluted so that 32 ul contained 200 ng and 12K HEK293 cells were transfected with the same […]. • A: Firefly Luciferase Assay for mRNA Delivery Efficiency. After 24 hours of transfection, transfected cells were conditioned to room temperature for 30 minutes prior to the Firefly Luciferase Assay. Quantilum Recombinant Luciferase standard curve was prepared in 10% EMEM in 5-fold serial dilutions. 50 ul of each standard point from the range of 3.9×10^−5 mg/ml to 4.88×10^−3 mg/ml were included in the microplate as a positive enzyme activity control (data not shown) to maintain a linearity of 10^7 RLU/mg/ml. The ONE-Glo substrate, previously conditioned to room temperature for at least 4 hours, was added to each untransfected, transfected and Quantilum wells in a ratio 1:1. Assay plates were incubated for 3 minutes in darkness and immediately introduced into the Cytation 5 Cell Imaging Multi-Mode Reader (Biotek) to read luminescence. The results are illustrated in FIG. 7. • B: Ribogreen Assay for mRNA Encapsulation Efficiency. 1×TE Buffer and Triton Buffer (2% v/v in 1×TE Buffer) were added in duplicates into a black microplate per LNP. LNPs were diluted to 4 ng/ul in 1×DPBS pH 7.4 and added to each TE/Triton well in a ratio 1:1. Two standard curves were included in the Ribogreen Assay, one containing mRNA and 1×TE Buffer and other containing mRNA and Triton Buffer. Each one of these standard curves were used to calculate the mRNA concentration in each TE Buffer or Triton Buffer. This approach using two standard curves is more accurate for calculating the encapsulation efficiency and mRNA concentrations, in comparison to a single standard curve. Standards were included in the microplate after diluted LNPs were added to the plate. Microplates were incubated at 37° C. for 10 minutes to extract LNPs with Triton. Ribogreen reagent was diluted 1:100 in 1×TE Buffer and added to each well in a ratio 1:1. Microplates were immediately introduced into the Cytation 5 Cell Imaging Multi-Mode Reader (Biotek) to read Fluorescence (Ex485/Em528). The results are illustrated in FIG. 8. • C: Dynamic Light Scattering for LNP Size (red dots are PDI right y axis). LNPs were diluted to 6.25 ng/ul in 1×DPBS pH 7.4 and transferred into a quartz cuvette (ZEN2112) to measure size by Dynamic Light Scattering (DLS) in the Zetasizer Nano ZS (Malvern Panalytical) using particle RI of 1.45 and Absorption of 0.001 in 1×PBS at 25° C. with viscosity of 1.02 cP and RI of 1.335.

physchem = assay type: physicochemical
Description: The pH-dependence of proton NMR chemical shifts was used to measure the pKa's of the ionizable lipid water-soluble analogues (WSA) following published methods5,6. Chemical shifts of piperazine, imidazole, 2-chloroacetic acid and acetic acid were used as internal pH indicators. Solutions for MC3-WSA were prepared with 100 mM KCl, 2 mM piperazine, 2 mM imidazole, and 5 mM water soluble ionizable lipid analogue in 95% H2O-5% D2O. Solutions for the terminal(N1) and aza amines(N2) at the p-position of carboxylic esters of C24-WSA were prepared with 100 mM KCl, 2 mM piperazine, 2 mM imidazole, 0.2 mM DSS, and 5 mM water soluble ionizable lipid analogue in 95% H2O-5% D2O. Solutions for the internal amine (N3) of C24-WSA were prepared with 100 mM KCl, 2 mM chloroacetic acid, 2 mM acetic acid, 0.2 mM DSS, and 5 mM water soluble ionizable lipid analogue in 95% H2O-5% D2O. Solutions were split into two equal volumes and one titrated to a lower pH using 0.1 M HCl and the other to an upper pH using 0.1 M NaOH where the lower and upper pH bracketed the desired range of pH. Intermediate pH values were obtained by mixing different proportions of these two solutions. NMR measurements were performed on a Bruker 400 MHz spectrometer where 1H spectra were acquired at each of ˜24 pH values ranging from the lower to upper pH. […] Chemical shifts from piperazine, imidazole, 2-chloroacetic acid, and acetic acid were then used to calculate the pH of each solution according to published methods5,6 and the chemical shifts of protons adjacent to each nitrogen in the ionizable lipid water sluble analogue headgroup were fit to the Henderson-Hasselbalch equation to provide the pKa of each Nitrogen. Spectra are in Supplementary FIG. 2.

[2] = Table 12, HEK 293 cells in vitro

SMILES: CCCCCCCC(=O)N(CCCN(C)C)C(CCCCCCCCC(=O)OC(CCCCCC)CCCCCC)CCCCCCCCC(=O)OC(CCCCCC)CCCCCC [Acuitas Compound 10]
- ΔpKa = Classic-Galas [1]: 3.04
- ΔpKa = Classic-TNS [1]: 3.24

SMILES: CCCCC/C=C\C/C=C\CCCCCCCCOC(=O)CCN(CCCN1CCN(C)CC1)CCC(=O)OCCCCCCCC/C=C\C/C=C\CCCCC (racemic) [DL-ADDE-C2/C3-4Me-PipZ]
- Transfection +/− (HEK 293 cells; [2]): +

SMILES: CCCCCCCCCCC(CCCCCCCC)COC(=O)CCN(CCCCN1CCN(C)CC1)CCC(=O)OCC(CCCCCCCC)CCCCCCCCCC (centres unmarked) [Lipid C24, Bis(2-octyldodecyl) 3,3′-((4-(4-methylpiperazin-1-yl)butyl)azanediyl)dipropionate]
- difference between NMR-measured and theoretical pKas (physchem): ≤ 0.4 units

SMILES: CCCCC/C=C\C/C=C\CCCCCCCCOC(=O)CCN(CCN)CCC(=O)OCCCCCCCC/C=C\C/C=C\CCCCC (racemic) [DL-ADDE-C2/C2-DeBocA]
- Transfection +/− (HEK 293 cells; [2]): −

SMILES: CCCCC/C=C\C/C=C\CCCCCCCCOC(=O)CCCCN(CCCCC(=O)OCCCCCCCC/C=C\C/C=C\CCCCC)CCCCN(C)C (racemic) [DL-ADDE-C4/C4-DMA]
- Transfection +/− (HEK 293 cells; [2]): +

SMILES: CCCCCCCCCCC(CCCCCCCC)COC(=O)CCN(CCC(=O)OCC(CCCCCCCC)CCCCCCCCCC)CCN1CCN(C)CC1 (centres unmarked) [BODD-ADDE-C2/C2-4Me-PipZ]
- Transfection +/− (HEK 293 cells; [2]): +

SMILES: CCCCC/C=C\C/C=C\CCCCCCCCOC(=O)CCN(CCC(=O)OCCCCCCCC/C=C\C/C=C\CCCCC)CCN1CCCCC1 (racemic) [DL-ADDE-C2/C2-PipD]
- Transfection +/− (HEK 293 cells; [2]): +

SMILES: CCCCC/C=C\C/C=C\CCCCCCCCOC(=O)CCN(CCC(=O)OCCCCCCCC/C=C\C/C=C\CCCCC)CCC(C)C (racemic) [DL-ADDE-IP]
- Transfection +/− (HEK 293 cells; Table 13A): −

SMILES: CCCCC/C=C\C/C=C\CCCCCCCCOC(=O)CCN(CCC(=O)OCCCCCCCC/C=C\C/C=C\CCCCC)CCN(C(C)C)C(C)C (racemic) [DL-ADDE-C2/C2-DIPA]
- Transfection +/− (HEK 293 cells; [2]): −

SMILES: CCCCCCCCCCC(CCCCCCCC)COC(=O)CCN(CCCCN1CCN(C)CC1)CCC(=O)OCC(CCCCCCCC)CCCCCCCCCC (centres unmarked) [BOD-ADDE-C2/C4-4-Me-PipZ]
- Transfection +/− (HEK 293 cells; [2]): +

SMILES: CCCCC/C=C\C/C=C\CCCCCCCCOC(=O)CCN(CCCCN(C)C)CCC(=O)OCCCCCCCC/C=C\C/C=C\CCCCC (racemic) [DL-ADDE-C2/C4-DMA]
- Transfection +/− (HEK 293 cells; [2]): +

SMILES: CCCCC/C=C\C/C=C\CCCCCCCCOC(=O)CCN(CCCCN1CCN(C)CC1)CCC(=O)OCCCCCCCC/C=C\C/C=C\CCCCC (racemic) [DL-ADDE-C2/C4-4Me-PipZ]
- Transfection +/− (HEK 293 cells; [2]): +

SMILES: CCCCC/C=C\C/C=C\CCCCCCCCOC(=O)CCN(CCCN(C)C)CCC(=O)OCCCCCCCC/C=C\C/C=C\CCCCC (racemic) [DL-ADDE-C2/C3-DMA]
- Transfection +/− (HEK 293 cells; [2]): +

SMILES: CCCCC/C=C\C/C=C\CCCCCCCCOC(=O)CCN(CCC(=O)OCCCCCCCC/C=C\C/C=C\CCCCC)CCN(C)C (racemic) [DL-ADDE-C2/C2-DMA]
- Transfection +/− (HEK 293 cells; [2]): +

SMILES: CCCCC/C=C\C/C=C\CCCCCCCCOC(=O)CCCCN(CCCCC(=O)OCCCCCCCC/C=C\C/C=C\CCCCC)CCCCN1CCCCC1 (racemic) [DL-ADDE-C4/C4-PipD]
- Transfection +/− (HEK 293 cells; [2]): +

SMILES: CCCCC/C=C\C/C=C\CCCCCCCCOC(=O)CCN(CCCN1CCCC1)CCC(=O)OCCCCCCCC/C=C\C/C=C\CCCCC (racemic) [DL-ADDE-C2/C3-Pyr]
- Transfection +/− (HEK 293 cells; [2]): +

SMILES: CCCCC/C=C\C/C=C\CCCCCCCCOC(=O)CCN(CCO)CCC(=O)OCCCCCCCC/C=C\C/C=C\CCCCC (racemic) [DL-ADDE-EA]
- Transfection +/− (HEK 293 cells; Table 13A): −

SMILES: CCCCC/C=C\C/C=C\CCCCCCCC(=O)NCCN(C)C [L-Amide-DMA]
- Transfection +/− (HEK 293 cells; Table 13C): −

SMILES: CCCCC/C=C\C/C=C\CCCCCCCCOC(=O)CCN(CCCO)CCC(=O)OCCCCCCCC/C=C\C/C=C\CCCCC (racemic) [DL-ADDE-PA]
- Transfection +/− (HEK 293 cells; Table 13A): −

SMILES: CCCCC/C=C\C/C=C\CCCCCCCCOC(=O)CCN(CCC(=O)OCCCCCCCC/C=C\C/C=C\CCCCC)CCN1CCN(C)CC1 (racemic) [DL-ADDE-C2/C2-4Me-PipZ]
- Transfection +/− (HEK 293 cells; [2]): +

SMILES: CCCCC/C=C\C/C=C\CCCCCCCCOC(=O)CCCCN(CCCCC(=O)OCCCCCCCC/C=C\C/C=C\CCCCC)CCCCN1CCN(C)CC1 (racemic) [DL-ADDE-C4/C4-4Me-PipZ]
- Transfection +/− (HEK 293 cells; [2]): +

SMILES: CCCCC/C=C\C/C=C\CCCCCCCCOC(=O)CCN(CCNC(=O)OC(C)(C)C)CCC(=O)OCCCCCCCC/C=C\C/C=C\CCCCC (racemic) [DL-ADDE-C2/C2-BocA]
- Transfection +/− (HEK 293 cells; [2]): −

SMILES: CCCCC/C=C\C/C=C\CCCCCCCCC1(CCCCCCCC/C=C\C/C=C\CCCCC)OCC(CCN(C)C)O1 (centres unmarked) [KC2]
- ΔpKa = Classic-Galas [1]: 2.32
- ΔpKa = Classic-TNS [1]: 2.62

SMILES: CCCCC/C=C\C/C=C\CCCCCCCC(=O)NCCSSCCN [L-Amide-AEDS]
- Transfection +/− (HEK 293 cells; Table 13C): −

SMILES: CCCCCCCCCOC(=O)CCCCCCCN(CCO)CCCCCCCC(=O)OC(CCCCCCCC)CCCCCCCC [Moderna Lipid 5]
- ΔpKa = Classic-Galas [1]: 3.34
- ΔpKa = Classic-TNS [1]: 2.34

SMILES: CCCCC/C=C\C/C=C\CCCCCCCCOCC(CN(C)C)OCCCCCCCC/C=C\C/C=C\CCCCC (centres unmarked) [DLinDMA, 1,2-dilinoleyloxy-N,N-dimethylaminopropane]
- ΔpKa = Classic-Galas [1]: 1.6
- ΔpKa = Classic-TNS [1]: 1.8

SMILES: CCCCC/C=C\C/C=C\CCCCCCCCOC(=O)CCN(CCC(=O)OCCCCCCCC/C=C\C/C=C\CCCCC)CC(C)(C)CN(C)C (racemic) [DL-ADDE-C2/C3-DM-DMA]
- Transfection +/− (HEK 293 cells; [2]): −

SMILES: CCCCC/C=C\C/C=C\CCCCCCCC(=O)NCCN [L-Amide-AE]
- Transfection +/− (HEK 293 cells; Table 13C): −
